Experimental data as given in PubChem BioAssay (NCI).
Where “and” joins values, the source holds several entries; their conditions need not be identical. Equal entries are not always repeated.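 96-well plates; 48 h exposure; 5 concentrations. Endpoints by linear interpolation between flanking doses. Not reached: highest tested concentration assigned. GI50 = concentration required for 50% inhibition of growth. TGI: total growth inhibition.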

Legend:
Assay in all cases: growth of human tumour cells (NCI), 48 h
[1] = system: IGROV1 ovarian
[2] = system: A549 NSCLC
[3] = system: SK-MEL-2 melanoma
[4] = system: MALME-3M melanoma
[5] = system: HS 578T breast
[6] = system: NCI-H226 lung
[7] = system: SN12C renal
[8] = system: T-47D breast
[9] = system: OVCAR-5 ovarian
[10] = system: BT-549 breast

Structure (SMILES) | GI50 [1] [µM] | TGI [1] | GI50 [2] [µM] | TGI [2] | GI50 [3] [µM] | TGI [3] | GI50 [4] [µM] | TGI [4] | GI50 [5] [µM] | TGI [5] | GI50 [6] [µM] | TGI [6] | GI50 [7] [µM] | TGI [7] | GI50 [8] [µM] | TGI [8] | GI50 [9] [µM] | TGI [9] | GI50 [10] [µM] | TGI [10]
Cc1cc(C)c(O)c(CNCCCCCCNCc2cc(C)cc(C)c2O)c1 | 1.68 | 3.49 µM | 2.23 | 4.72 µM | 1.91 | 3.67 µM | 1.6 | 3.17 µM | 1.65 | 3.88 µM | 1.83 | 3.72 µM | 1.83 | 3.92 µM | 1.5 | 3.36 µM | 1.82 | 4.31 µM | 2.24 | 5.52 µM
CC1(C)NCCC[C@]2(C)[C@H]3C=CC4=C5C[C@](C)(CO)CC[C@]5(C)CC[C@@]4(C)[C@]3(C)CC[C@@H]12 | 4.08 | 14.8 µM | 1.89 | 3.71 µM | 3.31 | 12.2 µM | 2.64 | 8.01 µM | 3.2 | 13.2 µM | 4 | 16.9 µM | 3.34 | 12 µM | 5.38 | 20.9 µM | 12.4 | 25.3 µM | 3.46 | 12.7 µM
C=C1C[C@@H]2C/C=C/C(=O)C/C(C)=C\C=C\C(=O)O[C@H](C=O)C/C(C)=C/[C@H](C1)O2 | 1.16 | 21.7 µM | 1.98 | > 100 µM | 6.1 | 34.9 µM | 13.6 | 38.4 µM | 4.23 | > 65.1 µM | 8.49 | 49 µM | 0.697 | 20.4 µM | 1.42 | 54.3 µM | 2.31 | 13.5 µM | 0.315 | 0.94 µM
c1ccc(C(=NNc2nc3ccccc3o2)c2ccccn2)nc1 | 0.0437 | 11.7 µM | 0.108 | > 34.5 µM and 16.5 µM | 0.465 | 28.8 µM and 27.1 µM | 0.134 |  | 1.01 | > 81.9 µM and 55.5 µM | 0.0628 |  | 0.0856 | > 71.7 µM |  | 12.4 µM and 25.8 µM | 0.0847 |  | 0.153 | 
CC1(C)COCN1COC1CCCCC1 |  | > 100 µM |  | > 100 µM |  | > 100 µM |  | > 100 µM |  | > 100 µM |  | > 100 µM |  | > 100 µM |  | > 100 µM |  | > 100 µM |  | > 100 µM
Cc1ncc([N+](=O)[O-])n1CCNS(=O)(=O)CCCn1ccnc1[N+](=O)[O-] |  | > 100 µM |  | > 100 µM |  | > 100 µM |  | > 100 µM |  | > 100 µM |  | > 100 µM |  | > 100 µM |  | > 100 µM |  | > 100 µM |  | > 100 µM
Nc1ccccc1/C=C\c1ccccc1 |  | > 100 µM |  | > 100 µM |  |  |  | > 100 µM |  | > 100 µM |  | > 100 µM |  | > 100 µM |  | > 100 µM |  | > 100 µM |  | > 100 µM
O=C1C(Cl)=C(Oc2ccc([N+](=O)[O-])cc2)C(=O)c2c(O)ccc(O)c21 |  | > 100 µM |  | > 100 µM |  |  |  | 40.1 µM |  | > 100 µM |  | > 100 µM |  | > 100 µM |  | > 77.7 µM |  | > 100 µM |  | > 100 µM
CN(C)CCCN=C(N)N |  | > 100 µM |  | > 100 µM |  | > 100 µM |  | > 100 µM |  | > 100 µM |  | > 100 µM |  | > 100 µM |  | > 100 µM |  | > 100 µM |  | > 100 µM
O=C1CCCCCCCC/C=C/CCC(c2ccco2)O1 (centres undefined) | 51.2 | > 100 µM | > 100 | > 100 µM | > 100 | > 100 µM | 6.7 | 62.6 µM | 16.2 | 77.9 µM | 34.8 | > 100 µM | 31.7 | > 100 µM | 21 | > 100 µM | > 100 | > 100 µM | 37.1 | > 100 µM
Cc1ccccc1CN1CC2=C(CCN(Cc3ccccc3)C2=O)N2CCN=C12 |  | > 100 µM |  | > 100 µM |  | > 81.6 µM | 9.84 | > 100 µM |  | > 100 µM |  | > 100 µM |  | > 100 µM |  | > 84.2 µM |  | > 100 µM |  | > 100 µM
OCC(O)C(O)C(O)C1SC(c2ccccc2)=NN1c1ccccc1 (centres undefined) |  | > 100 µM |  | > 100 µM |  | 93.2 µM |  | > 100 µM |  | > 100 µM |  | > 100 µM |  | > 100 µM |  | > 70.3 µM |  | > 100 µM |  | > 100 µM
O=C(NC1CC1)c1ccc(-c2nc3ccc4[nH]ncc4c3c3c2CCCC3)cc1 | 0.989 | > 50 µM | 1.63 | > 50 µM | 1.76 | 7.36 µM | 3.46 | 11.6 µM | 1.06 | 3.37 µM | 3.41 | 47.6 µM | 2.24 | 20.7 µM | 1.62 | 15.4 µM | 7.3 | 47.6 µM | 1.51 | 7.69 µM
COc1ccc(C2=NN(C(=O)COc3ccc(Cl)cc3)C(O)(c3cc(F)c(Cl)cc3Cl)C2)cc1OC (centres undefined) | 10.2 | 22.2 µM | 6.24 | 18.7 µM | 1.11 | 3.24 µM | 1.72 | 3.76 µM | 4.5 | 13.4 µM | 2.84 | 8.24 µM | 3.65 | 13.3 µM | 1.51 | 3.29 µM | 5.91 | 13.3 µM | 2.75 | 10.7 µM
O=C1/C(=C/c2ccc(O)c([N+](=O)[O-])c2)CCC/C1=C\c1ccc(O)c([N+](=O)[O-])c1 | 15.2 | 17 µM and 28.5 µM | 25.5 | 32.4 µM and 91.7 µM | 13 | 32.2 µM and 27.2 µM | 12.3 | 26.3 µM and 26.2 µM |  | 60.3 µM | 33.7 | 24.7 µM and > 100 µM | 46.2 | 26.2 µM and > 100 µM |  | 47.5 µM | 21.9 | 33.8 µM and 39.5 µM | 2.83 | 36.6 µM and 9.46 µM
c1cc2c(cc1C(N1CCNCC1)N1CCNCC1)OCO2 |  | > 100 µM |  | > 100 µM |  | > 100 µM |  | > 100 µM |  | > 100 µM |  | > 100 µM |  | > 100 µM |  | > 100 µM |  | > 100 µM |  | > 100 µM
FC(F)(F)c1cccc(COCCN2CCN(Cc3cccc(C(F)(F)F)c3)CC2)c1 |  | 30.3 µM |  | 30.9 µM |  |  |  | 22.5 µM |  | 38.2 µM |  | 35.8 µM |  | 33 µM |  | 39.1 µM |  | 31.6 µM |  | 29.6 µM
CC([C@H]1CCC2C3CCC4C[C@@H](NC=O)CC[C@]4(C)C3CC[C@@]21C)N(C)C (some centres undefined) | 4.81 | 18.2 µM | 3.32 | 11.5 µM | 5.71 | 13.8 µM | 2.18 | 4.83 µM | 2.69 | 12 µM | 5.47 | 21 µM | 2.88 | 13.7 µM | 1.76 | 5.94 µM | 6.87 | 19.3 µM | 6.95 | 25.1 µM
CC(C)(C)C(=O)Nc1ccccc1I(=O)=O | > 100 | > 100 µM | > 100 | > 100 µM | > 100 | > 100 µM | > 100 | > 100 µM | > 100 | > 100 µM | > 100 | > 100 µM | > 100 | > 100 µM | > 100 | > 100 µM | > 100 | > 100 µM | > 100 | > 100 µM
COc1cc(Cl)cc(-c2nn(C(=O)NCCN3CCN(C)CC3)cc2-c2ccncc2)c1 | 17.8 | > 100 µM | 9.55 | > 100 µM | 19.3 | 46 µM | 9.28 | 43.4 µM | 4.96 | 32.9 µM | 4.29 | 57.3 µM | 10.6 | > 100 µM | 20.8 | > 100 µM | 17.9 | 68.2 µM | 3.37 | 18.6 µM
COC(=O)NC/C=C\c1nc(CC/C=C\C(=O)OC2CC3CC(=O)O[C@H](/C=C/CC(C)C)C[C@H]4CCC(C)C(C[C@H](OC)CC(C2)O3)O4)co1 (some centres undefined) | 2.51 | > 100 µM | < 0.01 | > 100 µM | 20.2 | > 100 µM | 17.1 | 45.1 µM | 18.2 | > 100 µM | 12.9 | > 100 µM | < 0.01 | 28.8 µM | 39.1 | > 100 µM | 0.877 | > 100 µM | 0.016 | 2.95 µM
Cc1ccccc1C(=O)C#Cc1cn(C2CC(O)C(CO)O2)c(=O)[nH]c1=O (centres undefined) |  | > 100 µM |  | > 100 µM |  | > 100 µM |  | 35.1 µM |  | > 100 µM |  | > 100 µM |  | > 100 µM |  | > 100 µM |  |  |  | > 100 µM
COc1ccccc1C1=C2C(=O)N(C)C(c3ccccc3OC)=C2C(=O)N1C |  | > 100 µM |  | > 100 µM |  |  |  | > 100 µM |  | 97.1 µM |  | > 100 µM |  | > 100 µM |  | > 100 µM |  | > 100 µM |  | > 100 µM
